Measurements reported in patent US20150164855A1, “KETONE BODIES AND KETONE BODY ESTERS FOR MAINTAINING OR IMPROVING MUSCLE POWER OUTPUT” (priority 2012, published 2015).

Experiments:
Type in all cases: in vivo
[1] = Blood (R)-3-hydroxybutyrate concentration in rats following administration of ketones; settings: for Peak Blood (R)-3-hydroxybutyrate: rats fed sour cream mix containing 2 g ketone in 10 ml water, blood before feeding and after 1, 3 and 6 hours
Experimental: Experiments were carried out to determine the concentration of blood (R)-3-hydroxybutyrate in rats following administration of various ketones. The ketones tested are set out in Table 4 below. The ketones were tasted in the same manner as Ketones 1 to 8 above.
(§1) Rats were each fed with a sour cream mix containing 2 g of a ketone as set out in […] in 10 ml water. Samples of blood from each rat were taken immediately prior to feeding, after 1 hour, 3 hours and 6 hours to determine the blood concentration of (R)-3-hydroxybutyrate. Two controls (Control A and Control B) were also tested by feeding with the same mix without the ketone added. The rats were humanely killed and dissected for visual inspection to determine whether pyloric constriction or other visible changes had occurred.
Blood was extracted and 0.1 ml of whole blood was added to 0.4 ml 3.6% perchloric acid subjected to vortex and then allowed to rest in ice for 30 minutes and then spun. 350 ul of acidic supernatant were then transferred to a new tube and 5 ul phenol red (0.05%), 20 ul 1 M Imidazole pH 7 and 3 M KHCO3 was added to neutralize the solution which was allowed to stand in ice for 30 minutes and then spun. A sample of the neutralized blood extract was then assayed for (R)-3-hydroxybutyrate.

[2] = Uptake of oligomeric ketones into the blood (Example 2)
Experimental: Procedures were carried out to determine the uptake of oligomeric ketones into the blood.

[3] = Visual inspection of dissected rats for pyloric constriction or other visible changes; settings: rats fed 2 g ketone, killed and dissected for visual inspection
Experimental: as §1, with “Samples of blood from each rat were taken immediately prior to feeding, after 1 hour, 3 hours and 6 hours to determine the blood concentration of (R)-3-hydroxybutyrate.” left out

[4] = Single oral dose/response of blood (R)-3-hydroxybutyrate (Example 5); settings: 192, 291, 395 and 573 mg/kg single dose
Experimental: (R)-3-hydroxybutyrate-R-1,3-butanediol monoester was administered in a single dose based on a fixed amount per kg of body weight of the subject to a number of subjects. The blood (R)-3-hydroxybutyrate concentration was determined over a period of time to determine the dose/response relationship between the oral single dose and the blood concentration of (R)-3-hydroxybutyrate. The procedure was repeated with different quantities of (R)-3-hydroxybutyrate-R-1,3-butanediol monoester to provide data on the dose/response relationship for (R)-3-hydroxybutyrate-R-1,3-butanediol monoester when administered at 192 mg/kg, 291 mg/kg, 395 mg/kg and 573 mg/kg.

## CC(O)CC(=O)OC(C)CC(=O)OC(C)CC(=O)OCC[C@@H](C)OC(=O)CC(C)OC(=O)CC(C)OC(=O)CC(C)O (stereo partly drawn) [Ketone 10, (R)-1,3-butanediol ditriolide ester]
[1]
  Peak Blood (R)-3-hydroxybutyrate: about 1.5 mM
[1]; rats, 2 g ketone
  level of uptake to the blood relative to the linear/other oligomers tested (Ketones 9, 11 and 12): around 10 times
[2]
  blood level of (R)-3-hydroxybutyrate (peak): about 1.5 mM

## (R)-3-hydroxybutyrate-(R)-1,3-butanediol [Ketone 8]
[1]
  Peak Blood (R)-3-hydroxybutyrate: 6 mM
[1]; rats, 2 g ketone
  level of uptake to the blood relative to the triolide diester oligomer (Ketone 10): around 4 times
[3]
  Symptoms: No pyloric constriction, no gas
[2]
  blood level of (R)-3-hydroxybutyrate (peak): 6000 µM
[4]
  blood (R)-3-hydroxybutyrate concentration after single oral dose: levels not previously reported with other ketones
